Measurements from patent US4265912A, “Glaucine lactate salts” (priority 1979, dated 1981).
Where a name gives a salt, the structure may show the parent alone. Read-outs that look alike come from different tables or passages of the source.

Legend:
[1] = system: mice; type: in vivo; details: for stimulation and Straub tail: mouse, in vivo, 100 mg/kg; for mice jumping after naloxone: naloxone 100 mg/kg intraperitoneal after increasing doses on two consecutive days
Procedure: Physical dependency liability was evaluated in mice by the procedure of Saelens, et al., Arch. Int. Pharmacodynam, 190:213-218, 1971. In this procedure, mice are administered increasing doses of a test compound at intervals on two consecutive days. The last dosage on the second day is followed by intraperitoneal injection of the morphine antagonist, naloxone, at a dosage of 100 mg/kg, and the mice are observed for characteristic jumping behaviour indicative of opiate withdrawals or morphine antagonism.

[2] = type: physicochemical; details: syrup; for percent of original concentration retained after one month: 0.6 percent d,l-glaucine lactate, 0.2 percent codeine phosphate or d,l-glaucine hydrobromide, 43800 min; for Percentage Remaining after 3 months at 40° C. / Percentage Remaining after 3 months at 55° C. / Percentage Remaining after 3 months at Ambient: 131400 min
Procedure: Stability of d,l-glaucine lactate was examined in the syrup vehicle of Example 4.
Syrups containing codeine phosphate, 0.2 percent, contained 97.5, 104.5 or 100 percent, respectively, after one month at ambient temperature, 40° C. or 55° C. […] After three months, the percentage amount of antitussive agent remaining was as shown below

[3] = solubility in cough syrup vehicle; type: physicochemical; details: cough syrup vehicle of Example 4
Procedure: A cough syrup vehicle formulation was prepared containing the following pharmaceutically-acceptable excipients: […]

[4] = stability of syrup with continuous exposure to light in amber and flint glass bottles; type: physicochemical; details: for assay after one month with continuous exposure to light, amber glass bottles / assay after one month with continuous exposure to light, flint glass bottles: ambient temperature, about 2000 Foot-candles, 24 hours/day, 43800 min; for assay after one month with continuous exposure to light, flint glass bottles: transparent (flint) glass
Procedure: In a procedure similar to that of Example 5, syrup formulations were prepared, placed in amber glass bottles and transparent (flint) glass bottles, and held under conditions of ambient temperature with continuous exposure to light. (About 2000 Foot-candles of combined fluorescent and incandescent light, for 24 hours/day.)

[5] = system: mouse (phenyl-p-quinone writhing); assay: analgesic activity, phenyl-p-quinone mouse writhing test; type: in vivo; details: oral, 30 minutes prior to phenyl-p-quinone challenge
Procedure: Test compounds were evaluated for analgesic activity in the phenyl-p-quinone mouse writhing test of Hendershot & Forsaith, J. Pharmacol. Exptl. Therap. 125(3) 237 (1959). The test compounds were administered orally 30 minutes prior to the phenyl-p-quinone challenge.

[6] = stability of crystalline d,l-glaucine lactate on storage; type: physicochemical; details: crystalline solid, 2 months storage at 40° C., read-out: percent of original assay retained, crystalline solid
[7] = system: guinea pigs (coughing, citric acid aerosol); assay: antitussive activity, citric acid aerosol test, oral; type: in vivo; details: Cavia porcellus, 1 h, 5 percent citric acid aerosol one hour after dosing
Procedure: Separate groups of guinea pigs were orally administered various doses of a test compound, or distilled water for a control group. One hour after oral dosing, the guinea pigs were exposed to a 5 percent aerosol of citric acid for a 10 minute test period. The number of cough responses produced during the last five minutes of exposure to the citric acid aerosol was recorded and the dosage effect to suppress coughing in 50 percent of the guinea pigs (ED50) was calculated. An antitussive effect was recorded for a guinea pig when its total number of coughs during the 5 minute test period were at least two standard deviation units below the mean number of coughs per guinea pig in the control group. […];

[8] = system: guinea pigs (coughing, citric acid aerosol); assay: antitussive activity, citric acid aerosol test, intraperitoneal injection; type: in vivo; details: Cavia porcellus, ip
Procedure: Separate groups of guinea pigs were orally administered various doses of a test compound, or distilled water for a control group. One hour after oral dosing, the guinea pigs were exposed to a 5 percent aerosol of citric acid for a 10 minute test period. The number of cough responses produced during the last five minutes of exposure to the citric acid aerosol was recorded and the dosage effect to suppress coughing in 50 percent of the guinea pigs (ED50) was calculated. An antitussive effect was recorded for a guinea pig when its total number of coughs during the 5 minute test period were at least two standard deviation units below the mean number of coughs per guinea pig in the control group. […]; In an operation similar to that of Example 2, test compounds were administered to guinea pigs by intraperitoneal injection, with one group of guinea pigs receiving distilled water as a control. ED50 's were calculated for antitussive activity in the citric acid aerosol test as described in Example 2. […];

Structure (SMILES): COc1cc2c(cc1OC)-c1c(OC)c(OC)cc3c1C(C2)N(C)CC3 (racemic) [d,l-Glaucine lactate (2:3)]
- stimulation and Straub tail [1]: no Straub tail
- mice jumping after naloxone [1]: no jumping behaviour in any of the ten mice

Structure (SMILES): COc1cc2c(cc1OC)-c1c(OC)c(OC)cc3c1C(C2)N(C)CC3 (racemic) [d,l-glaucine hydrobromide]
- percent of original concentration retained after one month ([2]; 40° C., hydrobromide): 96%
- percent of original concentration retained after one month ([2]; 55° C., hydrobromide): 89.5%
- percent of original concentration retained after one month ([2]; ambient temperature, hydrobromide): 99%
- Percentage Remaining after 3 months at 40° C. ([2]; 40° C., listed as d,l-Glaucine . HBr, hydrobromide): 93.3%
- Percentage Remaining after 3 months at 55° C. ([2]; 55° C., listed as d,l-Glaucine . HBr, hydrobromide): 91.4%
- Percentage Remaining after 3 months at Ambient ([2]; listed as d,l-Glaucine . HBr, hydrobromide): 100.8%
- solubility in cough syrup vehicle ([3]; hydrobromide): 0.3%
- solubility in cough syrup vehicle per 5 milliliter dosage unit ([3]; hydrobromide): about 15 milligrams per 5 milliliter dosage unit
- assay after one month with continuous exposure to light, amber glass bottles ([4]; hydrobromide): 84%
- assay after one month with continuous exposure to light, flint glass bottles ([4]; hydrobromide): 74.5%

Structure (SMILES): COc1cc2c(cc1OC)-c1c(OC)c(OC)cc3c1C(C2)N(C)CC3 (racemic) [d,l-glaucine lactate]
- percent of original concentration retained after one month ([2]; 40° C.): 100.6%
- percent of original concentration retained after one month ([2]; 55° C.): 96.7%
- percent of original concentration retained after one month ([2]; ambient temperature): 98.8%
- Percentage Remaining after 3 months at 40° C. ([2]; 40° C.): 97.0%
- Percentage Remaining after 3 months at 55° C. ([2]; 55° C.): 97.4%
- Percentage Remaining after 3 months at Ambient [2]: 104.1%
- solubility in cough syrup vehicle [3]: 2%
- solubility in cough syrup vehicle per 5 milliliter dosage unit [3]: about 100 milligrams per 5 milliliter dosage unit
- ED50 [5]: 25.5 mg/kg
- assay after one month with continuous exposure to light, amber glass bottles [4]: 94%
- assay after one month with continuous exposure to light, flint glass bottles [4]: 80.6%
- remaining at 1460 h [6]: > 99%
- ED50 [7]: 63.4 mg/kg
- ED50 [8]: 7.9 mg/kg

Structure (SMILES): COc1ccc2c3c1O[C@H]1[C@@H](O)C=C[C@H]4[C@@H](C2)N(C)CC[C@@]341 [codeine phosphate]
- percent of original concentration retained after one month ([2]; 40° C.): 104.5%
- percent of original concentration retained after one month ([2]; 55° C.): 100%
- percent of original concentration retained after one month ([2]; ambient temperature): 97.5%
- Percentage Remaining after 3 months at 40° C. ([2]; 40° C.): 101.1%
- Percentage Remaining after 3 months at 55° C. ([2]; 55° C.): 88.4%
- Percentage Remaining after 3 months at Ambient [2]: 101.3%
- stimulation and Straub tail [1]: Straub tail and stimulation
- total number of jumps after naloxone ([1]; naloxone 100 mg/kg intraperitoneal): 23 jumps total
- mice jumping after naloxone [1]: 2 of 6
- ED50 [5]: 21.2 mg/kg
- stability in both types of container ([4]; amber and flint glass, light, one month): appeared stable in both types of container
- assay after one month with continuous exposure to light, amber glass bottles [4]: 100%
- assay after one month with continuous exposure to light, flint glass bottles [4]: 100%
- ED50 [7]: 86.6 mg/kg
- ED50 [8]: 10.9 mg/kg

Structure (SMILES): COc1cc2c(cc1OC)-c1c(OC)c(OC)cc3c1[C@H](C2)N(C)CC3 [d-glaucine hydrobromide]
- ED50 [5]: 34 mg/kg
- ED50 [7]: 89 mg/kg
- ED50 [8]: 10 mg/kg
